The values that follow come from patent US20210122730A1, “GLUCOCORTICOID RECEPTOR MODULATORS” (ORIC Pharmaceuticals, Inc., priority 2017, published 2021).

In data set [1] the target is T1, CYP2C8 (Homo sapiens, UniProt P10632).
T1 construct: Pooled human microsomes were obtained from Sekisui XenoTech, KS; tissue Sekisui XenoTech, KS; host or cells: pooled human liver microsomes
T1 sequence (P10632 1-490): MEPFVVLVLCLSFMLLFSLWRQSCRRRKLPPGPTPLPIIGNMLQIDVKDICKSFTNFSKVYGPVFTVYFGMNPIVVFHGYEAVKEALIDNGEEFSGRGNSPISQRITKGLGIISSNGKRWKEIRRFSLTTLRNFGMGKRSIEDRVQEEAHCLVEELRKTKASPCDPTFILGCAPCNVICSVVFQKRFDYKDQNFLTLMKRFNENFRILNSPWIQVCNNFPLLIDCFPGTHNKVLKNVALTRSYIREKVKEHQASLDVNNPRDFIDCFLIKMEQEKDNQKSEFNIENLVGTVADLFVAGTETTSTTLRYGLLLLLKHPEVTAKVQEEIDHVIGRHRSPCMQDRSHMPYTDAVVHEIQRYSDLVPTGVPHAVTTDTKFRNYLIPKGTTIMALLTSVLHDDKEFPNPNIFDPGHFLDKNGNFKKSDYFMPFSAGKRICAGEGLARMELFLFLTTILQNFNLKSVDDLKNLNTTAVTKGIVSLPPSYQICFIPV
Briefly: CYP Inhibition Assay (CYP2C8, human liver microsomes, paclitaxel substrate). The data set is classed as in vitro ADME. The conditions noted are these: pH 7.4; pooled human liver microsomes 0.1 mg/mL, probe substrate paclitaxel. An outline of the steps: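 Pooled human liver microsomes (0.1 mg/mL) in 50 mM potassium phosphate pH 7.4 with compound, started with 1 mM NADPH, 5 min at 37° C, duplicate.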
On the technique in general: Liver microsomes are a subcellular fraction often used to study metabolism.

Data set [2] has as its target T2, GR (Homo sapiens, UniProt P04150).
T2 construct: expressed in transfected cells; host or cells: CHO-K1
T2 sequence (P04150 1-777): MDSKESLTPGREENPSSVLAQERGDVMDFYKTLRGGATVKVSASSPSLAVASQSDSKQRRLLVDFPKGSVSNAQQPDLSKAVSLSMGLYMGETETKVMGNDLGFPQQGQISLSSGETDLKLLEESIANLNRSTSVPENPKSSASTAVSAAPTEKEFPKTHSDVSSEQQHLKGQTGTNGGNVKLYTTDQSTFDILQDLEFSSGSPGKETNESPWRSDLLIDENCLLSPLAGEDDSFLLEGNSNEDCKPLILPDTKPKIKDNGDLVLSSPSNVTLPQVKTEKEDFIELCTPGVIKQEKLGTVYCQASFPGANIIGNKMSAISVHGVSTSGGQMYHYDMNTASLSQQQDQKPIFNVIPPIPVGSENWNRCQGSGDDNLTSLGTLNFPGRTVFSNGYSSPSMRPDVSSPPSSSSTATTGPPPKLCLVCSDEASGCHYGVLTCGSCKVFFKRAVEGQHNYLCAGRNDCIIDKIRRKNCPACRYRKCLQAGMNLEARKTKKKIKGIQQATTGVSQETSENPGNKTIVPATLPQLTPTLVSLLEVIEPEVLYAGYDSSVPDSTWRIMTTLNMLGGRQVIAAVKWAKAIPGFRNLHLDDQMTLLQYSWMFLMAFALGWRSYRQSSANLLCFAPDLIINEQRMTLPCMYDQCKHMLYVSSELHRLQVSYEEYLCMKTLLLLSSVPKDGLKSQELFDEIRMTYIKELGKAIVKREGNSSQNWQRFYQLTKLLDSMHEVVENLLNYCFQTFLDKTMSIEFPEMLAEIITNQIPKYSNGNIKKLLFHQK
Briefly: In Vitro GR Luciferase Reporter Assay (antagonist mode, CHO-K1-GR-MMTV-Luc reporter cells). The conditions noted are these: antagonist mode, 10 nM Dexamethasone. The data set is classed as cell-based. In outline: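 CHO-K1-GR-MMTV-Luc cells in phenol red-free DMEM with 10% CSS, stimulated with 10 nM dexamethasone (final) and treated with 8-point 1:5 compound dilutions for about 18-24 h at 37° C. Luciferase measured by OneGlo luminescence; IC50 derived for inhibition of GR activity.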

Bounds are passed on as bounds.

Usually inhibition stands for the drop in the measured response relative to a control, in per cent. A low value points to little suppression. Broadly, the IC50 is the concentration that inhibits the measured activity by half. Read a high IC50 as weaker potency in that assay. The molecule `Cn1ncc(S(=O)(=O)N(CC(C)(C)O)[C@H]2CCC3=Cc4c(cnn4-c4ccc(F)cc4)C[C@]3(C(=O)c3ncc(C(F)(F)F)s3)C2)n1` [Example 236, N-((4aS,6S)-1-(4-fluorophenyl)-4a-(5-(trifluoromethyl)thiazole-2-carbonyl)-4,4a,5,6,7,8-hexahydro-1H-benzo[f]indazol-6-yl)-N-(2-hydroxy-2-methylpropyl)-2-methyl-2H-1,2,3-triazole-4-sulfonamide] gave an inhibition at 5 min in data set [1] of 50 to 75%. The molecule further came in with an IC50 in data set [2] not above 100 nM.
In the same order, the values of `CC(C)N([C@H]1CCC2=Cc3c(cnn3-c3ccc(F)cc3)C[C@]2(C(=O)c2cc(F)ccn2)C1)S(=O)(=O)c1ccn(C)n1` [Example 241, N-((4aS,6S)-1-(4-fluorophenyl)-4a-(4-fluoropicolinoyl)-4,4a,5,6,7,8-hexahydro-1H-benzo[f]indazol-6-yl)-N-isopropyl-1-methyl-1H-pyrazole-3-sulfonamide] are 75 to 90% and not above 100 nM.
In the same order, the values of `CC(C)N([C@H]1CCC2=Cc3c(cnn3-c3ccc(F)cc3)C[C@]2(C(=O)c2cc(Cl)ccn2)C1)S(=O)(=O)c1ccn(C)n1` [Example 242, N-((4aS,6S)-4a-(4-chloropicolinoyl)-1-(4-fluorophenyl)-4,4a,5,6,7,8-hexahydro-1H-benzo[f]indazol-6-yl)-N-isopropyl-1-methyl-1H-pyrazole-3-sulfonamide] are 75 to 90% and not above 100 nM.
Consider `CCN([C@H]1CCC2=Cc3c(cnn3-c3ccc(F)cc3)C[C@]2(C(=O)c2cc(C(F)(F)F)ccn2)C1)S(=O)(=O)C1CCCC1` [Example 243, N-ethyl-N-((4aS,6S)-1-(4-fluorophenyl)-4a-(4-(trifluoromethyl)picolinoyl)-4,4a,5,6,7,8-hexahydro-1H-benzo[f]indazol-6-yl)cyclopentanesulfonamide], for which, in data set [1], the inhibition at 5 min lay within 50 to 75%. The molecule further showed an IC50 in data set [2] not above 100 nM.
In the same order, the values of `Cn1ccc(S(=O)(=O)N(CC2CC2)[C@H]2CCC3=Cc4c(cnn4-c4ccc(F)cc4)C[C@]3(C(=O)c3cc(F)ccn3)C2)n1` [Example 244, N-(cyclopropylmethyl)-N-((4aS,6S)-1-(4-fluorophenyl)-4a-(4-fluoropicolinoyl)-4,4a,5,6,7,8-hexahydro-1H-benzo[f]indazol-6-yl)-1-methyl-1H-pyrazole-3-sulfonamide] are 75 to 90% and not above 100 nM.
The like results for `Cn1ccc(S(=O)(=O)N(CC2CC2)[C@H]2CCC3=Cc4c(cnn4-c4ccc(F)cc4)C[C@]3(C(=O)c3cc(Cl)ccn3)C2)n1` [Example 245, N-((4aS,6S)-4a-(4-chloropicolinoyl)-1-(4-fluorophenyl)-4,4a,5,6,7,8-hexahydro-1H-benzo[f]indazol-6-yl)-N-(cyclopropylmethyl)-1-methyl-1H-pyrazole-3-sulfonamide] were, in that order, 50 to 75% and not above 100 nM.
On to `Cn1cc(S(=O)(=O)N(CC(C)(C)O)[C@H]2CCC3=Cc4c(cnn4-c4ccc(F)cc4)C[C@]3(C(=O)c3cc(Cl)ccn3)C2)cn1` [Example 246, N-((4aS,6S)-4a-(4-chloropicolinoyl)-1-(4-fluorophenyl)-4,4a,5,6,7,8-hexahydro-1H-benzo[f]indazol-6-yl)-N-(2-hydroxy-2-methylpropyl)-1-methyl-1H-pyrazole-4-sulfonamide], for which the inhibition at 5 min in data set [1] was in the range of 25 to 50%. Also, in data set [2], the IC50 was not above 100 nM.
The like results for `O=C(c1cc(C(F)F)ccn1)[C@]12Cc3cnn(-c4ccc(F)cc4)c3C=C1CC[C@H](N(C1CC1)S(=O)(=O)c1ccc(F)cc1)C2` [Example 247, N-cyclopropyl-N-((4aS,6S)-4a-(4-(difluoromethyl)picolinoyl)-1-(4-fluorophenyl)-4,4a,5,6,7,8-hexahydro-1H-benzo[f]indazol-6-yl)-4-fluorobenzenesulfonamide] were, in that order, 50 to 75% and not above 100 nM.
The like results for `Cn1cc(S(=O)(=O)N(CC(F)(F)F)[C@H]2CCC3=Cc4c(cnn4-c4ccc(F)cc4)C[C@]3(C(=O)c3ncc(C(F)(F)F)s3)C2)cn1` [Example 250, N-((4aS,6S)-1-(4-fluorophenyl)-4a-(5-(trifluoromethyl)thiazole-2-carbonyl)-4,4a,5,6,7,8-hexahydro-1H-benzo[f]indazol-6-yl)-1-methyl-N-(2,2,2-trifluoroethyl)-1H-pyrazole-4-sulfonamide] were, in that order, 50 to 75% and not above 100 nM.
In the same order, the values of `Cn1ccc(S(=O)(=O)N(CC2(O)CC2)[C@H]2CCC3=Cc4c(cnn4-c4ccc(F)cc4)C[C@]3(C(=O)c3ncc(C(F)(F)F)s3)C2)n1` [Example 251, N-((4aS,6S)-1-(4-fluorophenyl)-4a-(5-(trifluoromethyl)thiazole-2-carbonyl)-4,4a,5,6,7,8-hexahydro-1H-benzo[f]indazol-6-yl)-N-((1-hydroxycyclopropyl)methyl)-1-methyl-1H-pyrazole-3-sulfonamide] are 50 to 75% and not above 100 nM.
In data set [1], `O=C(c1cc(F)ccn1)[C@]12Cc3cnn(-c4ccc(F)cc4)c3C=C1CC[C@H](N(CC1(O)CC1)S(=O)(=O)c1ccc(F)cc1)C2` [Example 254, 4-fluoro-N-((4aS,6S)-1-(4-fluorophenyl)-4a-(4-fluoropicolinoyl)-4,4a,5,6,7,8-hexahydro-1H-benzo[f]indazol-6-yl)-N-((1-hydroxycyclopropyl)methyl) benzenesulfonamide] showed an inhibition at 5 min of 50 to 75%. Also, in data set [2], the IC50 is not above 100 nM.
In the same order, the values of `Cn1ccc(S(=O)(=O)N(CC2(O)CC2)[C@H]2CCC3=Cc4c(cnn4-c4ccc(F)cc4)C[C@]3(C(=O)c3cc(F)ccn3)C2)n1` [Example 255, N-((4aS,6S)-1-(4-fluorophenyl)-4a-(4-fluoropicolinoyl)-4,4a,5,6,7,8-hexahydro-1H-benzo[f]indazol-6-yl)-N-((1-hydroxycyclopropyl)methyl)-1-methyl-1H-pyrazole-3-sulfonamide] are 50 to 75% and not above 100 nM.
In data set [1], `Cn1ccc(S(=O)(=O)N(CC2(O)CC2)[C@H]2CCC3=Cc4c(cnn4-c4ccc(F)cc4)C[C@]3(C(=O)c3cc(Cl)ccn3)C2)n1` [Example 257, N-((4aS,6S)-4a-(4-chloropicolinoyl)-1-(4-fluorophenyl)-4,4a,5,6,7,8-hexahydro-1H-benzo[f]indazol-6-yl)-N-((1-hydroxycyclopropyl)methyl)-1-methyl-1H-pyrazole-3-sulfonamide] had an inhibition at 5 min of 50 to 75%. Besides, in data set [2], the IC50 is not above 100 nM.
The like results for `Cn1ccc(S(=O)(=O)N(C2CC2)[C@H]2CCC3=Cc4c(cnn4-c4ccc(F)cc4)C[C@]3(C(=O)c3cc(C(F)F)ccn3)C2)n1` [Example 258, N-cyclopropyl-N-((4aS,6S)-4a-(4-(difluoromethyl)picolinoyl)-1-(4-fluorophenyl)-4,4a,5,6,7,8-hexahydro-1H-benzo[f]indazol-6-yl)-1-methyl-1H-pyrazole-3-sulfonamide] were, in that order, 50 to 75% and not above 100 nM.
In the same order, the values of `Cn1ccc(S(=O)(=O)N(C2CC2)[C@H]2CCC3=Cc4c(cnn4-c4ccc(F)cc4)C[C@]3(C(=O)c3ncc(Cl)cn3)C2)n1` [Example 259, N-((4aS,6S)-4a-(5-chloropyrimidine-2-carbonyl)-1-(4-fluorophenyl)-4,4a,5,6,7,8-hexahydro-1H-benzo[f]indazol-6-yl)-N-cyclopropyl-1-methyl-1H-pyrazole-3-sulfonamide] are 25 to 50% and not above 100 nM.
